Experimental data as given in ChEMBL document CHEMBL4385611, “Difluoromethylene at the γ-Lactam α-Position Improves 11-Deoxy-8-aza-PGE1 Series EP4 Receptor Binding and Activity: 11-Deoxy-10,10-difluoro-8-aza-PGE1 Analog (KMN-159) as a Potent EP4 Agonist” (J Med Chem, 2019).
Values after ≈ are worked out from the molar mass of the structure shown.

Assays:
[1] = target: Prostaglandin E2 receptor EP2 subtype (Homo sapiens, UniProt P43116); assay: Displacement of [3H]PGE2 from human recombinant EP2 receptor expressed in HEK293 cell membranes after 120 mins by liquid scintillation counting method
Prostaglandin E2 receptor EP2 subtype, sequence (P43116 whole entry): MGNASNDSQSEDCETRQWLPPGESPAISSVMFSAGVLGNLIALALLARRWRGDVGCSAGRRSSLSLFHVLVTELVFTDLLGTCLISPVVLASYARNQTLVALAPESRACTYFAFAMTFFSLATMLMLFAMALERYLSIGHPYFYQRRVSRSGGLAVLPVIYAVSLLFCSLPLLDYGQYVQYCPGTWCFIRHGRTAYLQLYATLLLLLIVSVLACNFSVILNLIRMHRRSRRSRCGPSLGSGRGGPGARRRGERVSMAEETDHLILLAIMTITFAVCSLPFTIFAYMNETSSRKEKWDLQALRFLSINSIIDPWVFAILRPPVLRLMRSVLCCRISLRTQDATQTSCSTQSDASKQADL

[2] = Half-life in human hepatocytes at 0.1 uM by HPLC-MS/MS analysis; format: ADME, cell-based, Hepatocyte
[3] = target: T1, Cytochrome P450 2C8 (Homo sapiens, UniProt P10632); assay: Inhibition of CYP2C8 in human liver microsomes using paclitaxel as substrate at 10 uM after 10 mins by HPLC-MS/MS analysis; format: ADME
T1 sequence (P10632 whole entry): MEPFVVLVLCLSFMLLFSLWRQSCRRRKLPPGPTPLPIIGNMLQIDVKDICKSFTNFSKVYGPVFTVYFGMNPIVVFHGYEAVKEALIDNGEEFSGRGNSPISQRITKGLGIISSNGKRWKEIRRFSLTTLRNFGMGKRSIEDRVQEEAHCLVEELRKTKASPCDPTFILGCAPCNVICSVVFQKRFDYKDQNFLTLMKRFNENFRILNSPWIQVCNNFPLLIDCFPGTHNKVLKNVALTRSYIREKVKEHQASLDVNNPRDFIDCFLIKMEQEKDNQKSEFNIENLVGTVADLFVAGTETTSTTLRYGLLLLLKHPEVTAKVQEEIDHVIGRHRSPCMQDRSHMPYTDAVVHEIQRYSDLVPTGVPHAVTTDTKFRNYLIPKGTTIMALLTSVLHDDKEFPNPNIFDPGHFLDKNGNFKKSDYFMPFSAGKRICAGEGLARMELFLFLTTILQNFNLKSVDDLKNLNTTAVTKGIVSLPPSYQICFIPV

[4] = target: Cytochrome P450 2D6 (Homo sapiens, UniProt P10635); assay: Inhibition of CYP2D6 in human liver microsomes using dextromethorphan as substrate at 10 uM after 10 mins by HPLC-MS/MS analysis; format: ADME
Cytochrome P450 2D6, sequence (P10635 whole entry): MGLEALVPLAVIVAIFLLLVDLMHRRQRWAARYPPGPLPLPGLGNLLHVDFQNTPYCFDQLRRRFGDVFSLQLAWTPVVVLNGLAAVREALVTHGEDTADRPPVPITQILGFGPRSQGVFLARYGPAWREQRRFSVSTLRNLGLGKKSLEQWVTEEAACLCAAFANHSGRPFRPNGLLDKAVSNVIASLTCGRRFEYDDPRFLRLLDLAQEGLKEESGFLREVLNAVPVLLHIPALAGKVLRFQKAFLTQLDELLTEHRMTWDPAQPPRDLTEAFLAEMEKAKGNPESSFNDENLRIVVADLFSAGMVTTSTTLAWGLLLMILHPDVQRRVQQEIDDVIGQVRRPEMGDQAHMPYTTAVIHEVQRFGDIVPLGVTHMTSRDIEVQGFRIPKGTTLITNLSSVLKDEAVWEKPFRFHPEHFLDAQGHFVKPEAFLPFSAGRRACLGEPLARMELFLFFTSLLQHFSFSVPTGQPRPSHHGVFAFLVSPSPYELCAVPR

[5] = target: Prostaglandin E2 receptor EP4 subtype (Homo sapiens, UniProt P35408); assay: Agonist activity at human EP4 receptor expressed in HEK293T/17 cells assessed as increase in GalphaS-mediated CREB activation measured after 6 to 24 hrs by SEAP reporter gene-based chemiluminescence assay; format: functional, cell-based
Prostaglandin E2 receptor EP4 subtype, sequence (P35408 whole entry): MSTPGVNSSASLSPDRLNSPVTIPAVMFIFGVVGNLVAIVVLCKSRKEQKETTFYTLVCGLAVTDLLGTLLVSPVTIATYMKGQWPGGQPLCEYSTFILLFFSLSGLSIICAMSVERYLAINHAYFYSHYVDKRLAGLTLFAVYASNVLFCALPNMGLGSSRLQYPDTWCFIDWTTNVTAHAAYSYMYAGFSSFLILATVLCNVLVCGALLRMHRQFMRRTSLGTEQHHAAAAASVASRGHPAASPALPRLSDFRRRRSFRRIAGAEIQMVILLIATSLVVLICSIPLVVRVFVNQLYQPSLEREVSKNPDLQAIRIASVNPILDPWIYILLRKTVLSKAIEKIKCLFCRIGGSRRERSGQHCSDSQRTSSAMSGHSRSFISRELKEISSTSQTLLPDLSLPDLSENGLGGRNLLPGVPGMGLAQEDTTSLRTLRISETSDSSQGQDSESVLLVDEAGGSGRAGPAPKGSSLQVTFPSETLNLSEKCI

[6] = Half-life in human liver microsomes at 0.1 uM by HPLC-MS/MS analysis; format: ADME, Microsome
[7] = test system: CHO-K1; assay: Clastogenic activity in CHOK1 cells after 4 hrs in absence of S9 fraction by micronucleus assay; format: toxicity, cell-based, Cricetulus griseus; details: chinese hamster, cho-k1, 4 h
[8] = Apparent permeability across apical to basolateral side in human Caco2 cells assessed as drug recovery at 5 uM after 120 mins by LC-MS/MS analysis; format: ADME, cell-based; details: Caco-2, read-out: Drug recovery
[9] = organism: Homo sapiens; assay: Selectivity ratio of Ki for displacement of [3H]PGE2 from human recombinant EP2 receptor expressed in HEK293 cell membranes to Ki for displacement of [3H]PGE2 from human recombinant EP4 receptor expressed in HEK293 cell membranes
[10] = test system: CHO-K1; assay: Clastogenic activity in CHOK1 cells after 4 hrs in presence of S9 fraction by micronucleus assay; format: toxicity, cell-based, Cricetulus griseus; details: chinese hamster, s9, 4 h
[11] = target: Cytochrome P450 3A (Homo sapiens, UniProt P08684+P20815+Q9HB55+P24462); assay: Inhibition of CYP3A in human liver microsomes using midazolam as substrate at 10 uM after 10 mins by HPLC-MS/MS analysis; format: ADME
[12] = Genotoxicity in Salmonella typhimurium TA100 at 0.6 to 100 uM after 96 hrs by photometry analysis; format: toxicity; details: salmonella enterica subsp. enterica serovar typhimurium
[13] = Genotoxicity in Salmonella typhimurium TA98 at 0.6 to 100 uM after 96 hrs by photometry analysis; format: toxicity; details: salmonella enterica subsp. enterica serovar typhimurium
[14] = n-Octanol-PBS buffer partition coefficient, log D of the compound at 100 uM at pH 7.4 after 1 hr by LC-MS/MS analysis; format: physicochemical
[15] = Aqueous solubility of the compound in pH 7.4 phosphate-buffered saline at 200 uM after 24 hrs by shake-flask method; format: physicochemical
[16] = target: Cytochrome P450 2C19 (Homo sapiens, UniProt P33261); assay: Inhibition of CYP2C19 in human liver microsomes using omeprazole as substrate at 10 uM after 10 mins by HPLC-MS/MS analysis; format: ADME
Cytochrome P450 2C19, sequence (P33261 whole entry): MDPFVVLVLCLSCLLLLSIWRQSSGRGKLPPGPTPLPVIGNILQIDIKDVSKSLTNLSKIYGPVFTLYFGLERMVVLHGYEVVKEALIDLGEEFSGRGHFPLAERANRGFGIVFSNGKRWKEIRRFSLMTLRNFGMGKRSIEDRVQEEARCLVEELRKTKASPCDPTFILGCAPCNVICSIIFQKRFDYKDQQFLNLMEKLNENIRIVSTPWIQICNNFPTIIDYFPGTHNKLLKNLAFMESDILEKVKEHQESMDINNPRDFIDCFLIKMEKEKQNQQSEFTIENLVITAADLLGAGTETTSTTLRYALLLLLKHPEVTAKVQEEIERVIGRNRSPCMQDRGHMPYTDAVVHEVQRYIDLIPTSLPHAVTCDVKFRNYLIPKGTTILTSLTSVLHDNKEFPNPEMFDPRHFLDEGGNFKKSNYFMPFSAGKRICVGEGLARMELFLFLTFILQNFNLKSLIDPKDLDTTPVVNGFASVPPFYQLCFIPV

[17] = Apparent permeability across basolateral to apical side in human Caco2 cells assessed as drug recovery at 5 uM after 120 mins by LC-MS/MS analysis; format: ADME, cell-based; details: Caco-2, read-out: Drug recovery
[18] = Mutagenicity in Salmonella typhimurium TA98 after 96 hrs in absence of rat liver S9 fraction by Ames test; format: toxicity; details: salmonella enterica subsp. enterica serovar typhimurium, s9, 96 h
[19] = target: T2, Cytochrome P450 1A (Homo sapiens, UniProt P04798+P05177); assay: Inhibition of CYP1A in human liver microsomes using phenacetin as substrate at 10 uM after 10 mins by HPLC-MS/MS analysis; format: ADME
T2 sequence (P04798 whole entry): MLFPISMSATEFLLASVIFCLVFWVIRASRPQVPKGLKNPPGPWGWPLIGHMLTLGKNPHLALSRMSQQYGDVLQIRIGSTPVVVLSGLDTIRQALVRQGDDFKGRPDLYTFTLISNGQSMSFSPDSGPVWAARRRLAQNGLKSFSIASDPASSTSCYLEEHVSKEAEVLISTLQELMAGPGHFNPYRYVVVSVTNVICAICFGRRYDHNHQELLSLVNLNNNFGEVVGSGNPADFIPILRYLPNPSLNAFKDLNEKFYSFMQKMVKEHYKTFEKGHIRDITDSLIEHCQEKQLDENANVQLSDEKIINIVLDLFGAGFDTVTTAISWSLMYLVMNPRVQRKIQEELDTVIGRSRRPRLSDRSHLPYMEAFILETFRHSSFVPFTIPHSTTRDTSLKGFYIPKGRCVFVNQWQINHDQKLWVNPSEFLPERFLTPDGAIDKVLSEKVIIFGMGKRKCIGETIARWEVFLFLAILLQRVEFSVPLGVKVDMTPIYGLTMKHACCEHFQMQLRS
T2 sequence (P05177 whole entry): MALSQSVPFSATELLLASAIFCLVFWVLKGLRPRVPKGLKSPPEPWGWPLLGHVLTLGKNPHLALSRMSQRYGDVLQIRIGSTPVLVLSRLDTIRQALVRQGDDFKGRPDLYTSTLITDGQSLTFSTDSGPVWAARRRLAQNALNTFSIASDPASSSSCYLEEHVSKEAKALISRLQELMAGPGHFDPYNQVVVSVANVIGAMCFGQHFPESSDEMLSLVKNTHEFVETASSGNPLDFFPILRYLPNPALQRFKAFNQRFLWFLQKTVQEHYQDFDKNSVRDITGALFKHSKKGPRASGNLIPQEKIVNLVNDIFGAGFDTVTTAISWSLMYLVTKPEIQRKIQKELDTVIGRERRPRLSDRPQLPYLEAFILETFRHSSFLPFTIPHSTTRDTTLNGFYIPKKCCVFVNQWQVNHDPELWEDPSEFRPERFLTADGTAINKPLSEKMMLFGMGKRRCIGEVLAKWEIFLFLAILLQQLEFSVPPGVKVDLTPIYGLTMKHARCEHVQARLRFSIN

[20] = Intrinsic clearance in human hepatocytes at 0.1 uM by HPLC-MS/MS analysis; format: ADME, cell-based, Hepatocyte

CCC#CC[C@H](C)[C@H](O)/C=C/[C@H]1CC(F)(F)C(=O)N1CCCCCCC(=O)O
Ki [1]: 4.97 µM
half-life at 0.1 µM [2]: > 2 h
inhibition (INH) [3]: Not Active
inhibition (INH) [4]: Not Active
EC50 [5]: 88 pM
half-life at 0.1 µM [6]: > 1 h
Activity [7]: Non-Toxic
recovery at 2 h, 5 µM [8]: 94%
Ratio Ki [9]: > 5000
Activity [10]: Non-Toxic
inhibition (INH) [11]: Not Active
Activity [12]: Non-Toxic
Activity [13]: Non-Toxic
logD at 1 h, 100 µM [14]: 0.11
solubility thermodynamic at 24 h, 200 µM [15]: 197 µM (≈ 78.7 µg/mL)
inhibition (INH) [16]: Not Active
recovery at 2 h, 5 µM [17]: 93%
Activity [18]: Non-Toxic
inhibition (INH) [19]: Not Active
CLH [20]: < 8.2 µL/min/10^6 cells

CCC#CC[C@H](C)[C@H](O)/C=C/[C@H]1CCC(=O)N1CCCCCCC(=O)O
Ki [1]: 12.2 µM
half-life at 0.1 µM [2]: > 2 h
inhibition (INH) [3]: Not Active
inhibition (INH) [4]: Not Active
EC50 [5]: 476 pM
half-life at 0.1 µM [6]: > 1 h
Activity [7]: Non-Toxic
recovery at 2 h, 5 µM [8]: 103%
Ratio Ki [9]: > 5000
Activity [10]: Non-Toxic
inhibition (INH) [11]: Not Active
Activity [12]: Non-Toxic
Activity [13]: Non-Toxic
logD at 1 h, 100 µM [14]: -0.07
solubility thermodynamic at 24 h, 200 µM [15]: 192 µM (≈ 69.9 µg/mL)
inhibition (INH) [16]: Not Active
recovery at 2 h, 5 µM [17]: 97%
Activity [18]: Non-Toxic
inhibition (INH) [19]: Not Active
CLH [20]: < 8.2 µL/min/10^6 cells
